US11840513B2, “Substituted nicotinimide inhibitors of BTK for treating cancer” (GUANGZHOU INNOCARE PHARMA TECH CO., LTD., priority 2013, dated 2023)

Target: SRC (Homo sapiens (Human), UniProt P12931)
Experiment: kinase-tagged phage / affinity bead competition binding screen at 1000 nM (qPCR readout)
Details: 1000 nM screen

SRC, sequence (P12931 whole entry, looked up): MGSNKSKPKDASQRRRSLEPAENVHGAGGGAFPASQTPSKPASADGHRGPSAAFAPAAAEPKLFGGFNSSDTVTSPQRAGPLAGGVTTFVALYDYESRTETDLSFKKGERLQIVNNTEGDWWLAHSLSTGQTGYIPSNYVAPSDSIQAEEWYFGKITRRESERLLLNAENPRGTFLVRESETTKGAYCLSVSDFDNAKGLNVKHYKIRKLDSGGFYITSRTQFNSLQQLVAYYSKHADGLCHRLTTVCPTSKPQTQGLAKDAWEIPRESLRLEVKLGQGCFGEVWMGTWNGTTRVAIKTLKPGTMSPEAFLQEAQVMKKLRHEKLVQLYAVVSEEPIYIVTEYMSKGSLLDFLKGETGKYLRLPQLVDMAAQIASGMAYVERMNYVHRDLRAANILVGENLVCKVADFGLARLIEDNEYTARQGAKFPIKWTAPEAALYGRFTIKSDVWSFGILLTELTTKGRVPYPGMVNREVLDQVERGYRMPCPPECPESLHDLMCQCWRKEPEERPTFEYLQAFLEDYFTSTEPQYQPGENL

Compound: C=CC(=O)N1CCN(c2ccc(C(N)=O)c(-c3ccc(Oc4ccccc4)cc3)n2)CC1 [Example 5, 6-(4-acryloylpiperazin-1-yl)-2-(4-phenoxyphenyl)nicotinamide]
- Fold Difference (BTK vs SRC): >100×
